Experimental data as given in US20130012473A1, “COMBINED USE OF PHOSPHOLIPID AND SULFATE GROUPS-CARRYING POLYSACCHARIDES FOR INHIBITING METASTATIC SPREAD” (KTB TUMORFORSCHUNGSGESELLSCHAFT MBH, priority 2010, published 2013).

Legend:
P-selectin ligands = assay: Flow cytometry, binding of soluble P-selectin Fc chimera; assay type: cell-based, mouse; settings: 450 μM LysoPC treated cells vs control cells
Experimental: (§1) FIG. 3: Impact of exogenous LysoPC on the surface expression of VLA-4 or VCAM-1- and P-selectin-ligands. (A) Surface expression of VLA-4 on B16.F10 cells treated with 450 μM LysoPC for 13 days was controlled by flow cytometric analysis. […] FACS histograms (A-C) show one representative of three independent experiments. In all experiments cells only incubated with the respective FITC-conjugated detection antibody served as control.

B16.F10 cells [1] = assay: LysoPC-mediated toxicity, cell viability by BrdU assay; assay type: cell-based, mouse
Experimental: BrdU proliferation assay: Proliferation and viability were determined by BrdU and WST-1 assay (Roche Diagnostics GmbH, Penzberg, Germany) according to the manufacturer's instructions.
LysoPC was toxic towards B16.F10 cells (p<0.001) at physiological concentrations (≧150 μM) in culture medium (DMEM plus 10% FCS). Thus, different amounts of BSA were added to reduce the concentration of cellular assessable LysoPC (monomolecular and micellar dissolved) and to therefore reduce LysoPC toxicity. Viability of the tumor cells was determined by BrdU assay and adding 10 mg BSA/ml, reduced cell viability was evident above 300 μM LysoPC. Using 20 mg/ml, reduced cell viability was evident above 450 μM LysoPC. Thus, to avoid toxicity of exogenous LysoPC (150 μM to 900 μM) towards the tumor cells during the LysoPC-removal-assay (FIG. 1), addition of 20 mg-40 mg BSA/ml DMEM was essential.

[2] = tested on: B16.F10 ELN melanoma cells; assay: Experimental lung metastasis model, luciferase assay of lung homogenates; assay type: in vivo, mouse
Experimental: Generation of luciferase expressing B16.F10 melanoma cells: For sensitive detection of metastases in vivo in lung and other murine tissues, stably luciferase-transduced B16.F10 ELN melanoma cells were established as recently described (Bornmann, C. et al., Cancer Chemother. Pharmacol. 61:395-405 (2008)).
Animal experiments: Lung metastases were induced by injecting 3×10^5 cells in 100 μl PBS into the tail vein of male C57BI/6N mice (Charles River Laboratories, Sulzfeld, Germany) (Ludwig, R. J. et al., Cancer Res. 64:2743-2750 (2004)). […] In a further experiment, animals were pre-treated 30 min before cell injection with 50 IU (Ludwig, R. J. et al., Cancer Res. 64:2743-2750 (2004)) unfractionated heparin (Ratiopharm GmbH, Ulm, Germany), followed by injection of either long-term 450 μM LysoPC treated or DMEM control medium cultured B16.F10 ELN cells. Experiments were terminated on day 14 (see establishment of the model—FIG. 9). Tissues were removed and stored as snap frozen samples. Metastatic lesions were quantified by homogenizing the tissues in luciferase lysis buffer and measuring in a luciferase assay (Promega E1501) as described (Jantscheff, P. et al., Establishment of human orthotopic LNCaP prostate cancer xenograft metastases model: Effect of Gemcitabine and GemLip. Clin. Exp. Metastasis: in press (2009); Jantscheff, P. et al., Prostate 69:1151-1163 (2009)).
Example 4: Inhibition of in vivo metastasis of B16.F10 ELN cells pretreated with LysoPC. […] For a sensitive quantitative analysis of metastatic spread in the lung, luciferase-transduced B16.F10 ELN cells were used. […]
To establish the mice metastasis model with luciferase-transduced B16.F10 melanoma cells, metastatic lesions in the lung and other tissues (those strongly supplied with blood, spleen, liver, kidney) were investigated at different time points (6 h, 24 h, 7 d, 14 d, and 19 d). Sensitivity of in vitro detection of metastatic lesions was determined as recently described (Jantscheff, P. et al., Prostate 69:1151-1163 (2009)) and limited corresponding to the detection of about 1000 cells in 1 ml tissue lysate (data not shown). Three to four animals were analyzed at each time point and metastatic lesions in lung and other tissues were determined by in vitro luciferase assay in tissue homogenates (see Material and Methods). As shown in A) significant metastasis could be detected first at day 7 and reached a plateau at day 14 in the lung. […] Therefore, in future experiments the animals were analyzed at day 14 and the experiments were limited to this time frame. Using the same scale, no metastatic lesions were detected in the other organs. […]

VCAM-1 Fc chimera = assay: Flow cytometry, binding of soluble VCAM-1 Fc chimera; assay type: cell-based, mouse; settings: repeatedly incubated with 450 μM LysoPC for 13 days
Experimental: as §1

VLA-4 = assay: Flow cytometry, VLA-4 surface expression (anti-mouse CD49d mAb); assay type: cell-based; settings: repeatedly incubated with 450 μM LysoPC for 13 days
Experimental: as §1

B16.F10 cells [3] = assay: SACED cell migration assay on fibronectin; assay type: cell-based, mouse; settings: 450 μM LysoPC, fibronectin layers
Experimental: Quantification of cell motility: Cell migration of B16.F10 cells cultivated on fibronectin (Sigma-Aldrich Chemie) covered dishes was determined with or without LysoPC. […] (Nikon, Dusseldorf, Germany) and an incubation chamber for constant temperature, applying NIS Elements AR 2.30 software and a camera (COOL-1300I; Vosskuhler GmbH, Germany)
Lamella dynamics and cell migration velocity were analyzed by the computer-assisted stroboscopic analysis of cell dynamics (SACED). At least 15 individual cells, incubated with or without LysoPC, were monitored over a period of 10 min by capturing digital images every 2 s. Subsequently, eight areas of interest were marked on each image by lines that crossed the cell lamella. The resulting 1 pixel wide areas were cut and lined up in time space plots that allowed the quantification of relevant motility data (Hinz, B. et al., Exp. Cell. Res. 251:234-243 (1999)).

Structure (SMILES): CCCCCCCCCCCCCCCCC(=O)OC[C@@H](O)COP(=O)([O-])OCC[N+](C)(C)C [LysoPC]
- expression of P-selectin ligands (P-selectin-Fc chimera binding) (P-selectin ligands): remained unchanged
- LysoPC concentration with reduced cell viability (B16.F10 cells [1]; 10 mg BSA/ml added): above 300 μM
- LysoPC concentration with reduced cell viability (B16.F10 cells [1]; 20 mg/ml BSA added): above 450 μM
- toxic LysoPC concentration (B16.F10 cells [1]; culture medium DMEM plus 10% FCS, no added BSA, p<0.001): ≥ 150 µM
- metastatic lesions in the lung, mean percentage relative to untreated controls (100%) ([2]; B16.F10 ELN cells treated ex vivo six times with 450 μM LysoPC (long-term), injected i.v., lung luciferase assay day 14): 51.7%
- lung luciferase activity compared to control ([2]; cells treated twice with 300 μM LysoPC (short-term), day 14): slightly but insignificantly enhanced luciferase activity
- macroscopically visible metastatic foci on lung surface ([2]; long-term 450 μM LysoPC group, day 14): clearly smaller numbers of metastatic foci
- macroscopically visible metastatic foci on lung surface ([2]; short-term 300 μM LysoPC group vs control, day 14): no differences were seen between the control and the short-term group
- functionality of VLA-4 to interact with soluble VCAM-1-Fc chimera (VCAM-1 Fc chimera): only slightly impaired
- VLA-4 receptor expression (VLA-4): did not influence VLA-4 receptor expression
- lamellipodia dynamics (frequencies of protrusion and retraction) (B16.F10 cells [3]): attenuated dynamics (p<0.05) of lamellipodia protrusion and retraction
- lamellipodia retraction velocity (B16.F10 cells [3]; p<0.05): slower lamellipodia retraction velocity
